Laboratory results as given in US20080299140A1, “Immunogenic Composition and Peptide Sequences for Prevention and Treatment of an Hsv Condition” (priority 2002, published 2008).

Tests used:
[1] = tested on: HLA-DR and HLA-DP molecules; test: MHC class II binding assays, panel of twelve HLA class II molecules (number of alleles bound); conditions: number of the twelve class II MHC alleles bound; title: Threshold 600 nM/5 alleles
[2] = tested on: lymphocytes obtained from HSV-1 infected H-2^d mice; test: HSV-primed T-cell responses to gD peptides in HSV-1 infected mice; assay type: cell-based; conditions: HSV-1 infected H-2^d mice
Procedure: Twelve days after the second immunization, spleen and inguinal lymph nodes (LN) were removed and placed into ice-cold serum free HL-1 medium supplemented with 15 mM HEPES, 5×10^−5 M β-mercaptoethanol, 2 mM glutamine, 50 U of penicillin and 50 μg of streptomycin (GIBCO-BRL, Grand Island, N.Y.) (complete medium, CM). The cells were cultured in 96-well plates at 5×10^5 cells/well in CM, with recall or control peptide at 30, 10, 3, 1, or 0.3 μg/ml concentration, as previously described in (BenMohamed et al., 2000 and 2002). The cell suspensions were incubated for 72 h at 37° C. in 5% CO2. One μCi (micro-curie) of (^3H)-thymidine (Dupont MEN, Boston, Mass.) was added to each well during the last 16 h of culture. The incorporated radioactivity was determined by harvesting cells onto glass fiber filters and counted on a Matrix 96 direct ionization-counter (Packard Instruments, Meriden, Conn.). Results were expressed as the mean cpm of cell-associated (^3H)-thymidine recovered from wells containing Ag minus the mean cpm of cell-associated (^3H)-thymidine recovered from wells without Ag (A cpm) (average of triplicate). The Stimulation Index (SI) was calculated as the mean cpm of cell-associated (^3H)-thymidine recovered from wells containing Ag divided by the mean cpm of cell-associated (^3H)-thymidine recovered from wells without Ag (average of triplicate). For all experiments the irrelevant control peptide gB141-165 and the T-cell mitogen Concanavalin A (ConA) (Sigma, St. Louis, Mo.) were used as negative and positive controls, respectively. Proliferation results were confirmed by repeating each experiment twice. A T-cell proliferative response was considered positive when A cpm>1000 and SI>2.
To define the fine specificity of broadly reactive T-cells associated with viral immunity and to explore immunodominance in the context of HSV infection, proliferation of lymphocytes obtained from twenty HSV-1 infected H-2^d mice were evaluated using the twelve gD peptides as Ag (FIG. 6). […] Despite a difference between individual mice, a unique array of T-cell responses was identified for each of the twenty infected mice analyzed.

T-cells = test: Cytokine analysis (IL-2, IL-4, IFN-γ sandwich ELISA); assay type: cell-based, mice
Procedure: T-cells were stimulated with either immunizing peptides (10 μg/ml), the irrelevant control peptide (10 μg/ml), UV-inactivated HSV-1 (MOI=3), or with ConA (0.5 μg/ml) as a positive control. Culture media were harvested 48 h (for IL-2) or 96 h (for IL-4 and IFN-γ) later and analyzed by specific sandwich ELISA following the manufacturer's instructions (PharMingen, San Diego, Calif.).

[3] = T cells treated with Abs to CD4
[4] = T cells treated with Abs to CD8
[5] = splenocyte derived T cells, no Abs, average of triplicates (+/- SD)

Structure (SMILES): CC[C@H](C)[C@H](NC(=O)[C@@H](N)[C@@H](C)O)C(=O)N[C@@H](C)C(=O)N[C@@H](Cc1c[nH]c2ccccc12)C(=O)N[C@@H](Cc1ccccc1)C(=O)N[C@@H](CCCNC(=N)N)C(=O)N[C@@H](CCSC)C(=O)NCC(=O)NCC(=O)N[C@@H](CC(N)=O)C(=O)N[C@@H](CS)C(=O)N[C@@H](C)C(=O)N[C@H](C(=O)N1CCC[C@H]1C(=O)N[C@H](C(=O)N[C@H](C(=O)N[C@H](C(=O)N[C@@H](CCSC)C(=O)N[C@@H](CCC(=O)O)C(=O)N[C@@H](Cc1ccc(O)cc1)C(=O)N[C@H](C(=O)N[C@@H](CCC(=O)O)C(=O)N[C@@H](CS)C(=O)N[C@@H](CO)C(=O)N[C@@H](Cc1ccc(O)cc1)C(=O)N[C@@H](CC(N)=O)C(=O)N[C@@H](CCCCN)C(=O)N[C@@H](CO)C(=O)O)[C@@H](C)O)C(C)C)[C@@H](C)O)[C@@H](C)CC)[C@@H](C)CC [HSV 41]
- Range [1]: 8
- immunodominance of epitopes in HSV-primed T-cell responses [2]: subdominant epitopes

Structure (SMILES): CC[C@H](C)[C@H](N)C(=O)N[C@@H](CS)C(=O)NCC(=O)N[C@H](C(=O)N[C@H](C(=O)N[C@@H](Cc1ccc(O)cc1)C(=O)N[C@@H](Cc1c[nH]c2ccccc12)C(=O)N[C@@H](CCSC)C(=O)N[C@@H](CCCNC(=N)N)C(=O)N[C@@H](CCCNC(=N)N)C(=O)N[C@@H](Cc1c[nH]cn1)C(=O)N[C@H](C(=O)N[C@@H](CCC(N)=O)C(=O)N[C@@H](CCCCN)C(=O)N[C@@H](C)C(=O)N1CCC[C@H]1C(=O)N[C@@H](CCCCN)C(=O)N[C@@H](CCCNC(=N)N)C(=O)N[C@H](C(=O)N[C@@H](CCCNC(=N)N)C(=O)N[C@@H](CC(C)C)C(=O)N1CCC[C@H]1C(=O)N[C@@H](Cc1c[nH]cn1)C(=O)N[C@H](C(=O)N[C@@H](CCCNC(=N)N)C(=O)N[C@@H](CCC(=O)O)C(=O)N[C@@H](CC(=O)O)C(=O)O)[C@@H](C)CC)[C@@H](C)CC)[C@@H](C)O)C(C)C)[C@@H](C)CC [HSV 39]
- Range [1]: 6
- IFNγ, Anti-CD4 (T-cells; [3]): 4 (+/−1) ng/ml
- IL-2, Anti-CD4 (T-cells; [3]): 36 (+/−1) pg/ml
- IFNγ, Anti-CD8 (T-cells; [4]): 54 (+/−1) ng/ml
- IL-2, Anti-CD8 (T-cells; [4]): 13 (+/−4) pg/ml
- IFNγ, None (T-cells; [5]): 179 (+/5−) ng/ml
- IL-2, None (T-cells; [5]): 135 (+/6−) pg/ml
- immunodominance of epitopes in HSV-primed T-cell responses [2]: immunodominant epitopes
